Data: US8658668B2, “PI3 kinase/mTOR dual inhibitor” (Eli Lilly and Company, priority 2011, dated 2014)

What was measured:
Format in all cases: cell-based
[1] = test system: AKT1(pS473); assay: AlphaScreen SureFire p-AKT (Ser473) in U87MG cells; settings: Homo sapiens, U-87 MG, 1 h, n = 4, read-out: AKT1(pS473) Absolute IC50
Protocol: This homogeneous assay format uses immuno-sandwich capture of the phosphorylated analyte and then detection with antibody-coated Alphascreen beads to generate an amplified signal.
Maintain U87MG cells in U87MG growth medium consisting of DMEM (GIBCO 11965-092) supplemented with 10% fetal bovine serum (FBS, GIBCO, 10091-141), 1% nonessential amino acids (GIBCO, 11140-050) and 1% sodium pyruvate (GIBCO, 11360-070). Harvest cells using standard cell culture procedures and then count using Vi-Cell. Plate 100 μL of U87MG cells in growth medium (50,000 cells/well) into Costar #3596 96 well plates and incubate overnight at 37° C., 5% CO2.
Incubate for one h at 37° C., then remove the medium and add 50 μL of 1× SureFire Lysis Buffer (TGR Biosciences SureFire® Kit component) to each well and incubate at room temperature for 10 min with gentle shaking Transfer 6 μL lysate and 10 μL reaction mixture (60 parts reaction buffer/10 parts activation buffer/1 part each of donor and acceptor beads, Perkin Elmer, 6760617R) to a 384 well proxiplate (Perkin Elmer, 6006280) for the p-p70S6 kinase (Thr389) and p-AKT(Ser473) assays. Seal the plate and incubate at RT for 4 h. […] Read the plates on a Perkin Elmer EnVision equipped with a TurboModule using standard AlphaScreen® settings (Ex680 nm and Em520-620 nm). […]

[2] = test system: SJSA-1; assay: Cell proliferation assay (CellTiter-Glo), SJSA-1; settings: Homo sapiens, SJSA-1, 72 h
Protocol: Plate cells in a 96-well plate at 2000 cells/well in 100 μL of cell specific medium (for U87MG use DMEM, 10% FBS, 25 mM 4-(2-hydroxyethyl)-1-piperazineethanesulfonic acid (HEPES), 1.0 mM sodium pyruvate, and 0.1 mM Non Essential Amino Acids (ATCC Cat.#30-2002); for HT1080 use Eagle's MEM, 10% FBS (ATCC Cat.#30-2003); for H1975, A2780, SJSA-1 and 786-O use RPMI 1640, 10% FBS (ATCC Cat.#30-2001); for A204 use McCoy's 5A, 10% FBS (ATCC Cat.#30-2007) except in column 1 use medium only as the blank control. Incubate the plates overnight at 37° C. and 5% CO2. On the next day, prepare compound stocks at 1 mM in DMSO and serially dilute in DMSO in a 96-well round bottom polypropylene plate. Assay compounds at 10 concentrations in duplicate, 4 compounds per plate.
Transfer 4 μL of the DMSO serial dilutions to a 96 well plate and add 196 μL of culture medium to create a 10× stock for dosing. Gently transfer 11 μL of each dosing stock to the corresponding well of the cell plate resulting in a 0.2% DMSO concentration and a 111 μL final volume. […]
Prepared the CellTiter-Glo reagent (Promega, Cat: G7571) and add 100 µL to each well after the incubation is complete, homogenize the cells by mixing on an orbital shaker for 2 min and then incubate at RT for 10 min to allow the luminescent signal to stabilize. Record the luminescent raw data with a Wallac Victor V plate reader. […]

[3] = test system: CXF 1103 human tumor xenograft cells; assay: Oncotest tumor clonogenic assay, CXF 1103; settings: CXF1103, colony formation, Colon CXF 1103, adeno carcinoma, pd, read-out: Absolute IC50
[4] = test system: GXF 1172 human tumor xenograft cells; assay: Oncotest tumor clonogenic assay, GXF 1172; settings: colony formation, Gastric GXF 1172, signet-ring cell carcinoma, pd, read-out: Absolute IC50
[5] = test system: HNXF 536 human tumor xenograft cells; assay: Oncotest tumor clonogenic assay, HNXF 536; settings: colony formation, Head and Neck HNXF 536, squamous epithelium carcinoma, wd, read-out: Absolute IC50

IC50 [1]: 94.2 nM | IC50 [2]: 96 nM | IC50 [3]: > 200 nM | IC50 [4]: 141 nM | IC50 [5]: 55 nM
Compound: CO[C@@H](C)Cn1c(=O)n(C)c2cnc3ccc(-c4cncc(C(C)(C)O)c4)cc3c21 [Example 1, 8-[5-(1-Hydroxy-1-methylethyl)pyridin-3-yl]-1-[(2S)-2-methoxypropyl]-3-methyl-1,3-dihydro-2H-imidazo[4,5-c]quinolin-2-one]
